Here are results for eleven compounds from US6512000B1, “Aminocarbonyl-substituted benzimidazoles having tryptase-inhibitory activity” (Boehringer Ingelheim Pharma KG, priority 1999, dated 2003).

Counter-ions that a name gives are not always drawn.

The target in the first assay is T1, rh beta tryptase (Homo sapiens, UniProt P20231).
T1 construct: purchased Promega
T1 sequence (P20231 31-275): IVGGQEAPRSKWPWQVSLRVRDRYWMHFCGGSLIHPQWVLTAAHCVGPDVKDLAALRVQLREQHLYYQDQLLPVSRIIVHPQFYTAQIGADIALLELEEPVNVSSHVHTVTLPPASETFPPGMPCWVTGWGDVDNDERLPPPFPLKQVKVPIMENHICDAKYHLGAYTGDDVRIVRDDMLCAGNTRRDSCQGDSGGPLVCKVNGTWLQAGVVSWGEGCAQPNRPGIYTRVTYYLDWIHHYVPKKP
As to the kind of experiment: Tryptase inhibition test (cleavage of N-p-tosyl-Gly-Pro-Lys-para-nitroaniline, p-nitroaniline measured at 405 nm). Format: biochemical. The note with it: concentration at which 50% of the tryptase enzyme activity is inhibited; substrate 0.6 mM, pH 7.4, 37° C. On the procedure:
The compounds according to the invention are characterised by their tryptase-inhibiting activity. This ability to inhibit tryptase was investigated using the test described below.
The measurement is carried out in Tris HCl buffer (100 mM), which additionally contains calcium (5 mM) and heparin ([…]), at pH 7.4. The standard used is rh beta tryptase which may be obtained commercially from Promega, for example. The substrate used is N-p-tosyl-Gly-Pro-Lys-para-nitroaniline in a concentration of 0.6 mM. The substrate is digested with tryptase to form p-nitroaniline which can be measured at 405 nm. Usually, an incubation period of 5 minutes and an incubation temperature of 37° C. are chosen. The enzyme activity used is 0.91 U/ml. The measurements are carried out in an Autoanalyser (Cobas Bio) made by Hofmann LaRoche. The potential inhibitory substances are used in concentrations of 10 μM in the screening, the inhibition of the tryptase being given in percent. The IC50 is determined at over 70% inhibition (concentration at which 50% of the enzyme activity is inhibited). After 5 minutes' pre-incubation of the potential inhibitory substances, the substrate is added to start the reaction, the formation of p-nitroaniline being taken as a measurement of the enzyme activity after 5 minutes, after testing the linearity.
The data obtained after the above test has been carried out (% inhibition) are assembled in Table 25 for the compounds according to the invention. The IC50 values obtained for the compounds according to the invention can be found in Table 26.
Table 26 contains the IC50 binding values obtained for the compounds according to the invention. These were measured as described above.
For `Cn1c(CCc2ccc(C(=N)N)cc2)nc2cc(C(=O)N(CCC(=N)N)Cc3cccnc3)ccc21` [Example 10, 2-[2-(4-Amidinophenyl)-ethyl]-1-methyl-benzimidazol-5-yl-carboxylic Acid-N-(2-amidinoethyl)-N-(3-pyridylmethyl)-amide-dihydrochloride], the IC50 is 316 nM.

Regarding `CC(C)N(CCC(=N)N)C(=O)c1ccc2c(c1)nc(CCc1ccc(C(=N)N)cc1)n2C` [Example 27, 2-[2-(4-Amidinophenyl)-ethyl]-1-methyl-benzimidazol-5-yl-carboxylic Acid-N-(2-amidinoethyl)-N-iso-propyl-amide-dihydrochloride], the IC50 is 153 nM. Turning to “2-[2-(4-amidinophenyl)ethyl]-1-(3-ethoxypropyl)-benzimidazol-5-yl-carboxylic acid-N-(2-aminoethyl)-N-(3-pyridyl)-amide [Example 326]”, the half-maximal inhibitory concentration (IC50) is 288 nM. `Cn1c(CCc2ccc(C(=N)N)cc2)nc2cc(C(=O)N(CCC(=N)N)c3ccccc3)ccc21` [Example 21, 2-[2-(4-Amidinophenyl)-ethyl]-1-methyl-benzimidazol-5-yl-carboxylic Acid-N-(2-amidinoethyl)-N-phenyl-amide-dihydrochloride] gave an IC50 of 51 nM.

The assay is the same for the next values; noted with them: inhibition of rh beta tryptase at 10 μM test substance; substrate N-p-tosyl-Gly-Pro-Lys-para-nitroaniline 0.6 mM, pH 7.4, 37° C., 5 minutes.
Compound `Cc1ccccc1N1CCN(CCCn2c(CCc3ccc(C(=N)N)cc3)nc3cc(C(=O)N(CCN)Cc4cccc(C(F)(F)F)c4)ccc32)CC1` [Example 400, 2-[2-(4-amidinophenyl)ethyl]-1-{3-[4-(2-methylphenyl)-piperazin-1-yl]-propyl}-benzimidazol-5-yl-carboxylic acid-N-(2-aminoethyl)-N-(3-trifluoromethylbenzyl)-amide] gave an inhibition at 10 µM of 52%. Take `N=C(N)c1ccc(CCc2nc3cc(C(=O)N(Cc4ccccc4)Cc4ccc(CN)cc4)ccc3n2CC2CCCO2)cc1` (stereo not drawn) [Example 114, 2-[2-(4-amidinophenyl)ethyl]-1-(tetrahydrofuran-2-yl-methyl)-benzimidazol-5-yl-carboxylic acid-N-[4-(amino-methyl)-benzyl]-N-benzyl-amide]: the inhibition at 10 µM was determined as 58%. The same measure, in the same setting: the value for `N=C(N)c1ccc(CCc2nc3cc(C(=O)N(CCN)CCCc4ccccc4)ccc3n2CCCN2CCOCC2)cc1` [Example 369, 2-[2-(4-amidinophenyl)ethyl]-1-[3-(morpholin-4-yl)-propyl]-benzimidazol-5-yl-carboxylic acid-N-(2-aminoethyl)-N-(3-phenylpropyl)-amide] was 57%; that for `N=C(N)c1ccc(CCc2nc3cc(C(=O)N(CCN)CC4CCCCC4)ccc3n2CC2CCCO2)cc1` (stereo not drawn) [Example 354, 2-[2-(4-amidinophenyl)ethyl]-1-(tetrahydrofuran-2-yl-methyl)-benzimidazol-5-yl-carboxylic acid-N-(2-aminoethyl)-N-cyclohexylmethyl-amide] was 58%; that for `CCCCN(CCN)C(=O)c1ccc2c(c1)nc(CCc1ccc(C(=N)N)cc1)n2CCc1ccc(Cl)cc1` [Example 284, 2-[2-(4-amidinophenyl)ethyl]-1-[2-(4-chlorophenyl)ethyl]-benzimidazol-5-yl-carboxylic acid-N-(2-aminoethyl)-N-n-butyl-amide] was 55%. For “2-[2-(4-amidinophenyl)ethyl]-1-(3-ethoxypropyl)-benzimidazol-5-yl-carboxylic acid-N-(2-aminoethyl)-N-(3-pyridyl)-amide [Example 326]”, the “% Inhibition (10 μM)” value is recorded as 51%. As for `COC(=O)c1ccc(CN(Cc2ccc(CN)cc2)C(=O)c2ccc3c(c2)nc(CCc2ccc(C(=N)N)cc2)n3Cc2ccc(C)cc2)cc1` [Example 445, 2-[2-(4-amidinophenyl)ethyl]-1-(4-methylbenzyl)-benzimidazol-5-yl-carboxylic acid-N-[4-(amino-methyl)-benzyl]-N-[4-(methoxycarbonyl)-benzyl]-amide], the inhibition at 10 µM was 52%. In turn, `COC(=O)c1ccc(CN(Cc2ccc(CN)cc2)C(=O)c2ccc3c(c2)nc(CCc2ccc(C(=N)N)cc2)n3CCc2ccccc2)cc1` [Example 443, 2-[2-(4-amidinophenyl)ethyl]-1-(2-phenylethyl)-benzimidazol-5-yl-carboxylic acid-N-[4-(amino-methyl)-benzyl]-N-[4-(methoxycarbonyl)-benzyl]-amide] displayed an inhibition at 10 µM of 52%.

For orientation: IC50 means the concentration at which inhibition is half-maximal. One may read the inhibition as the percentage by which the read-out fell short of the control. Low values mean little suppression, high ones strong suppression.
